In ChEMBL document CHEMBL4627269, “New thiopyrimidine-benzenesulfonamide conjugates as selective carbonic anhydrase II inhibitors: synthesis, in vitro biological evaluation, and molecular docking studies” (Bioorg Med Chem, 2020):

Tests used:
Carbonic anhydrase 1 = Carbonic anhydrase 1 (Homo sapiens, UniProt P00915); assay: Inhibition of human carbonic anhydrase 1 incubated for 15 mins prior to testing measured for 10 to 100 secs by phenol red dye based stopped-flow CO2 hydration assay
Carbonic anhydrase 9 = Carbonic anhydrase 9 (Homo sapiens, UniProt Q16790); assay: Inhibition of human carbonic anhydrase 9 incubated for 15 mins prior to testing measured for 10 to 100 secs by phenol red dye based stopped-flow CO2 hydration assay
Carbonic anhydrase 12 = Carbonic anhydrase 12 (Homo sapiens, UniProt O43570); assay: Inhibition of human carbonic anhydrase 12 incubated for 15 mins prior to testing measured for 10 to 100 secs by phenol red dye based stopped-flow CO2 hydration assay
Carbonic anhydrase 2 [1] = biological target: T1, Carbonic anhydrase 2 (Homo sapiens, UniProt P00918); assay: Inhibition of recombinant human carbonic anhydrase 2 incubated for 15 mins prior to testing measured for 10 to 100 secs by phenol red dye based stopped-flow CO2 hydration assay
Carbonic anhydrase 2 [2] = biological target: T1, Carbonic anhydrase 2; assay: Inhibition of recombinant human carbonic anhydrase 2 expressed in Escherichia coli BL21 (DE3) using 4-nitrophenyl acetate as substrate incubated for 10 mins prior to testing by spectrophotometric method

Carbonic anhydrase 1, sequence (P00915 whole entry): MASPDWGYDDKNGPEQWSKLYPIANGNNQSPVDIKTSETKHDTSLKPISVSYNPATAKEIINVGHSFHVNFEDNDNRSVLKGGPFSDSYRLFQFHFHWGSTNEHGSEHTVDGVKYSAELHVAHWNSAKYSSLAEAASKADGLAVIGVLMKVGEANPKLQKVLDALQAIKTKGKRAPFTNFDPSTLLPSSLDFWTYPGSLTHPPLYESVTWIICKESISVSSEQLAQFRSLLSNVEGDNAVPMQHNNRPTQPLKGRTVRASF
Carbonic anhydrase 12, sequence (O43570 whole entry): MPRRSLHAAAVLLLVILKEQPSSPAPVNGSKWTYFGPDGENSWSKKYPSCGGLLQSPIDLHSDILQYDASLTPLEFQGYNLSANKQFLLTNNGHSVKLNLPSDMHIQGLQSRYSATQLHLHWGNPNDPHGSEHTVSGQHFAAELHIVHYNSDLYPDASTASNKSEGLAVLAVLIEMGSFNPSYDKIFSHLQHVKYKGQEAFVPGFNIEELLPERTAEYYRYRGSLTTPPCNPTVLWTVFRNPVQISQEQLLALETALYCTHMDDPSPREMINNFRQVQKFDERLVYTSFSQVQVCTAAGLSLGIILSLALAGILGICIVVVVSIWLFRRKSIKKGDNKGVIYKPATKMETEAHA

**Q.** Which results are given for O=C(CSc1nccc(Nc2ccc(S(=O)(=O)Nc3ccccn3)cc2)n1)c1ccc(Cl)cc1?
**A.** Ki (Carbonic anhydrase 1): > 100 µM; Ki (Carbonic anhydrase 9): > 100 µM

**Q.** NS(=O)(=O)c1ccc(Nc2ccnc(SCC(=O)c3ccc(F)cc3)n2)cc1 was tested. Which Ki (Carbonic anhydrase 9) did it give?
**A.** 0.82 µM

**Q.** For COc1ccc(C(=O)CSc2nccc(Nc3ccc(S(=O)(=O)Nc4cc(C)on4)cc3)n2)cc1, which Ki (Carbonic anhydrase 9) is on record?
**A.** > 100 µM

**Q.** With Cc1cc(NS(=O)(=O)c2ccc(Nc3ccnc(SCC(=O)c4ccc(F)cc4)n3)cc2)no1 as the compound, how does the Ki (Carbonic anhydrase 1) read?
**A.** > 100 µM

**Q.** What about the Ki (Carbonic anhydrase 9) of the same compound?
**A.** 92.1 µM

**Q.** And the Ki (Carbonic anhydrase 12)?
**A.** > 100 µM

**Q.** With O=C(CSc1nccc(Nc2ccc(S(=O)(=O)Nc3cncs3)cc2)n1)c1ccc(Cl)cc1 as the compound, how does the Ki (Carbonic anhydrase 9) read?
**A.** 0.55 µM

**Q.** What does the source list for NS(=O)(=O)c1ccc(Nc2ccnc(SCC(=O)c3ccc(-c4ccccc4)cc3)n2)cc1?
**A.** Ki (Carbonic anhydrase 1): > 100 µM; Ki (Carbonic anhydrase 9): 0.23 µM

**Q.** Which results are given for COc1ccc(C(=O)CSc2nccc(Nc3ccc(S(=O)(=O)Nc4ncccn4)cc3)n2)cc1?
**A.** Ki (Carbonic anhydrase 1): > 100 µM; Ki (Carbonic anhydrase 2 [1]): > 100 µM; Ki (Carbonic anhydrase 9): 2.51 µM

**Q.** Which Ki (Carbonic anhydrase 9) does the source give for O=C(CSc1nccc(Nc2ccc(S(=O)(=O)Nc3cncs3)cc2)n1)c1ccccc1 here?
**A.** > 100 µM

**Q.** Which Ki (Carbonic anhydrase 1) does the source give for Cc1cc(NS(=O)(=O)c2ccc(Nc3ccnc(SCC(=O)c4ccc(Cl)cc4)n3)cc2)no1 here?
**A.** > 100 µM

**Q.** What about the Ki (Carbonic anhydrase 9) of the same compound?
**A.** 8.94 µM

**Q.** Which Ki (Carbonic anhydrase 2 [2]) does the source give for NS(=O)(=O)c1ccc(Nc2ccnc(NS(=O)(=O)c3cccnc3)n2)cc1 here?
**A.** 0.004 µM

**Q.** How did the Ki (Carbonic anhydrase 2 [2]) turn out when NS(=O)(=O)c1ccc(Nc2ccnc(NS(=O)(=O)c3cccc(C(F)(F)F)c3)n2)cc1 was run?
**A.** 0.001 µM

**Q.** Which Ki (Carbonic anhydrase 9) does the source give for NS(=O)(=O)c1ccc(Nc2ccnc(SCC(=O)c3ccc(Br)cc3)n2)cc1 here?
**A.** > 100 µM

**Q.** For COc1ccc(C(=O)CSc2nccc(Nc3ccc(S(=O)(=O)Nc4ccccn4)cc3)n2)cc1, which Ki (Carbonic anhydrase 1) is on record?
**A.** > 100 µM

**Q.** And the Ki (Carbonic anhydrase 2 [1])?
**A.** > 100 µM

**Q.** What about the Ki (Carbonic anhydrase 9) of the same compound?
**A.** > 100 µM

**Q.** COc1ccc(C(=O)CSc2nccc(Nc3ccc(S(N)(=O)=O)cc3)n2)cc1 was tested. Which Ki (Carbonic anhydrase 9) did it give?
**A.** 5.17 µM

**Q.** With NS(=O)(=O)c1ccc(Nc2ccnc(SCC(=O)c3ccc(Cl)cc3)n2)cc1 as the compound, how does the Ki (Carbonic anhydrase 9) read?
**A.** > 100 µM

**Q.** How did the Ki (Carbonic anhydrase 9) turn out when NS(=O)(=O)c1ccc(Nc2ccnc(SCC(=O)c3ccc(C(F)(F)F)cc3)n2)cc1 was run?
**A.** 39.2 µM

**Q.** With NS(=O)(=O)c1ccc(Nc2ccnc(SCC(=O)c3ccccc3)n2)cc1 as the compound, how does the Ki (Carbonic anhydrase 9) read?
**A.** 0.16 µM

**Q.** For O=C(CSc1nccc(Nc2ccc(S(=O)(=O)Nc3cncs3)cc2)n1)c1ccc(C(F)(F)F)cc1, which Ki (Carbonic anhydrase 9) is on record?
**A.** > 100 µM

**Q.** For CC(=O)NS(=O)(=O)c1ccc(Nc2ccnc(SCC(=O)c3ccc(Cl)cc3)n2)cc1, which Ki (Carbonic anhydrase 9) is on record?
**A.** > 100 µM

**Q.** Which Ki (Carbonic anhydrase 1) does the source give for O=C(CSc1nccc(Nc2ccc(S(=O)(=O)Nc3ccccn3)cc2)n1)c1ccccc1 here?
**A.** > 100 µM

**Q.** And the Ki (Carbonic anhydrase 9)?
**A.** > 100 µM
